According to paper PMC12064818, “A general assay platform to study protein pharmacology using ligand-dependent structural dynamics” (Nature Communications, 2025):
Like-named read-outs stand apart in the source and are kept apart here.

Experiments:
NLuc = molecular target: T1, NLuc (Oplophorus gracilirostris, UniProt Q9GV45, A31E/A60N/A81I/F95D/I117V/K70R/L54V/L99Q/M102K/N193R/P142E/Q151K/Q38R/Q45L/V71I/Y165I); assay type: biochemical; conditions: - ATP
T1 construct: His tag (inferred from IMAC purification); made in house; host or cells: E. coli
Procedure, shortened: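 Test compounds added to 1 nM NLuc in PBS with 0.05% IGEPAL, ± ATP. Nano-Glo reagent added and incubated 10 min before luminescence read.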

P. pyralis FLuc = P. pyralis FLuc (Photinus pyralis, UniProt P08659); assay: FLuc enzymatic luminescence assay, P. pyralis FLuc; assay type: biochemical; conditions: FLuc enzymatic assay; for IC50: read-out: IC50 or SDR50 (mM) FLuc E
Procedure, shortened: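 Runs with and without 10 µM ATP: compounds were pre-incubated with FLuc (1–10 nM, PBS pH 7.4) at ambient temperature, light-protected, for 30–60 min. Luminescence was imaged 5 min after adding 10 µM D-luciferin (final). Inhibition was scaled between DMSO neutral and no-enzyme controls.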

[1] = molecular target: FLuc-C-NLuc (firefly luciferase) (Photinus pyralis, UniProt P08659, form not given/L550V); assay: SDR assay, FLuc-C-NLuc; conditions: - ATP
[2] = molecular target: FLuc-C-HiBiT (firefly luciferase) (Photinus pyralis, UniProt P08659, form not given/L550V); assay: SDR assay, FLuc-C-HiBiT; conditions: SDR max. response, clade S
Sequence of FLuc-C-HiBiT (firefly luciferase) (P08659 2-550 L550V, form open): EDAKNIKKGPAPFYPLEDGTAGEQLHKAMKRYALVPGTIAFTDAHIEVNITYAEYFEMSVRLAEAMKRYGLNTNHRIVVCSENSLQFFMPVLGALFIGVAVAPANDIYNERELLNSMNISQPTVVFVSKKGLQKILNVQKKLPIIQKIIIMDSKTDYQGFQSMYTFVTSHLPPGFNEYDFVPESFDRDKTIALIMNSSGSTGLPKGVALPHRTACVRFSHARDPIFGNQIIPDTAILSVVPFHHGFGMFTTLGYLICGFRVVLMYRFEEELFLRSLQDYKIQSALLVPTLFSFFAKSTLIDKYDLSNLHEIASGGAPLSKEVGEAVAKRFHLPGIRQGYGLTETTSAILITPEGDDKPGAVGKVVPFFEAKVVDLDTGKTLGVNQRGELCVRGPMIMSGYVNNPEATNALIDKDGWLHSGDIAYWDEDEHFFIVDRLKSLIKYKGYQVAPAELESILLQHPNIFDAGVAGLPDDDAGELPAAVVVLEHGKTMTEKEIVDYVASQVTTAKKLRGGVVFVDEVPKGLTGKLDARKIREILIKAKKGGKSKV

Sequence of P. pyralis FLuc (P08659 whole entry): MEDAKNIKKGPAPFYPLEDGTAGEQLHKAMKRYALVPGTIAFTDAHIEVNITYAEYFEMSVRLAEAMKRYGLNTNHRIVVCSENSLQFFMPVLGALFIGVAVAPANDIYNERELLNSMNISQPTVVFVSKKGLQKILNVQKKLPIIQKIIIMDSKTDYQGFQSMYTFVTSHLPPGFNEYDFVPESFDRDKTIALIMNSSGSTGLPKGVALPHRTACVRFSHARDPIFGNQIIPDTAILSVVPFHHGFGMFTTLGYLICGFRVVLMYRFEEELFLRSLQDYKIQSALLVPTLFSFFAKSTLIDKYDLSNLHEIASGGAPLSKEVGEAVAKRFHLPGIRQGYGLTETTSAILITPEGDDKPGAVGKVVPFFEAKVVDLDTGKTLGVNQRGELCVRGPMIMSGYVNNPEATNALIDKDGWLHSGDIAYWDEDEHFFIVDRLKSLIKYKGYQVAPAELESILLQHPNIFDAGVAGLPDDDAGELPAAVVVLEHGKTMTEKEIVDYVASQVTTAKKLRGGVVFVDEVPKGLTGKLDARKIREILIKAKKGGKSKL
Sequence of FLuc-C-NLuc (firefly luciferase) (P08659 2-550 L550V, form open): as the sequence (P08659 2-550 L550V, form open) above
T1 sequence (Q9GV45 other isoform, or with tags, fused parts or gaps with the stated changes): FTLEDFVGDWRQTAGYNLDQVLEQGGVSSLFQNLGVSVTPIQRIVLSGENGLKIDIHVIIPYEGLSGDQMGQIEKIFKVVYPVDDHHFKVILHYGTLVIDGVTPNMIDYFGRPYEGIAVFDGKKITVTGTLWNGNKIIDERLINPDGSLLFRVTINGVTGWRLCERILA

Compound	Efficacy (%) NLuc (- ATP) (NLuc)	Efficacy (%) FLuc E (P. pyralis FLuc; Clade S follow-up)	Efficacy (%) FLuc-C-NLuc SDR (-ATP) [1]	% Activity (max response, + ATP) [2]	% Activity (max response, - ATP) [2]	pIC50 or pSDR50 FLuc E (P. pyralis FLuc; Clade S follow-up)	IC50 (P. pyralis FLuc; Clade S follow-up)	pIC50 or pSDR50 FLuc E (P. pyralis FLuc)	IC50 (P. pyralis FLuc)
Cc1ccc(CNC(=O)C2CCN(C(=O)c3ncn4c3COC(c3ccc(F)cc3)C4)CC2)cc1 (stereo not shown) [NCGC00449814-01]	0.00%	-11.84%	0.00%	17.69%	0.00%	–	–	–	–
O=C(NCC1CCCCC1)C1CCN(C(=O)c2ncn3c2COC(c2ccc(F)cc2)C3)CC1 (stereo not shown) [NCGC00449830-01]	0.00%	0.00%	0.00%	0.00%	0.00%	–	–	–	–
COCCNC(=O)C1CCN(C(=O)c2ncn3c2COC(c2ccc(F)cc2)C3)CC1 (stereo not shown) [NCGC00449834-01]	0.00%	-35.83%	0.00%	67.53%	0.00%	4.91	0.0124 mM	–	–
CC(NC(=O)C1CCN(C(=O)c2ncn3c2COC(c2ccc(F)cc2)C3)CC1)c1ccc(F)cc1 (stereo not shown) [NCGC00449825-01]	0.00%	0.00%	0.00%	0.00%	0.00%	–	–	–	–
O=C(NCc1ccccc1Cl)C1CCN(C(=O)c2ncn3c2COC(c2ccccc2)C3)CC1 (stereo not shown) [NCGC00449786-01]	15.00%	-73.36%	0.00%	336.94%	0.00%	–	–	5.01	0.00988 mM
COc1ccc(C2Cn3cnc(C(=O)N4CCC(C(=O)NCC5CC5)CC4)c3CO2)cc1 (stereo not shown) [NCGC00449873-01]	0.00%	0.00%	0.00%	0.00%	0.00%	–	–	–	–
CC(NC(=O)C1CCN(C(=O)c2ncn3c2COC(c2ccc(Cl)cc2)C3)CC1)c1ccccc1 (stereo not shown) [NCGC00449853-01]	0.00%	-16.52%	0.00%	0.00%	0.00%	–	–	–	–
O=C(NCc1ccccc1)C1CCN(C(=O)c2ncn3c2COC(c2ccc(Cl)cc2)C3)CC1 (stereo not shown) [NCGC00449849-01]	0.00%	-35.02%	0.00%	28.50%	0.00%	4.91	0.0124 mM	–	–
CCc1ccc(NC(=O)C2CCN(C(=O)c3ncn4c3COC(c3ccccc3)C4)CC2)cc1 (stereo not shown) [NCGC00449907-01]	0.00%	-99.55%	0.00%	288.22%	0.00%	5.16	0.00699 mM	–	–
O=C(NCCC1=CCCCC1)C1CCN(C(=O)c2ncn3c2COC(c2ccccc2)C3)CC1 (stereo not shown) [NCGC00449771-01]	0.00%	-97.83%	0.00%	338.43%	0.00%	–	–	5.56	0.00278 mM
O=C(NC1CCCCCCC1)C1CCN(C(=O)c2ncn3c2COC(c2ccc(Cl)cc2)C3)CC1 (stereo not shown) [NCGC00449847-01]	0.00%	-17.30%	0.00%	0.00%	0.00%	–	–	–	–
CCc1cccc(NC(=O)C2CCN(C(=O)c3ncn4c3COC(c3ccccc3)C4)CC2)c1 (stereo not shown) [NCGC00449906-01]	0.00%	-98.95%	0.00%	357.78%	0.00%	5.76	0.00176 mM	–	–
CC1CCC(NC(=O)C2CCN(C(=O)c3ncn4c3COC(c3ccc(Cl)cc3)C4)CC2)CC1 (stereo not shown) [NCGC00449845-01]	0.00%	0.00%	0.00%	0.00%	0.00%	–	–	–	–
O=C(Nc1ccccc1)C1CCN(C(=O)c2ncn3c2COC(c2ccc(F)cc2)C3)CC1 (stereo not shown) [NCGC00449920-01]	0.00%	-13.92%	0.00%	29.50%	0.00%	–	–	–	–
COc1ccc(CNC(=O)C2CCN(C(=O)c3ncn4c3COC(c3ccccc3)C4)CC2)cc1 (stereo not shown) [NCGC00449778-01]	0.00%	-88.62%	0.00%	301.65%	0.00%	–	–	5.01	0.00988 mM
O=C(NC1CCCCC1)C1CCN(C(=O)c2ncn3c2COC(c2ccc(F)cc2)C3)CC1 (stereo not shown) [NCGC00449807-01]	0.00%	-25.30%	0.00%	42.77%	0.00%	–	–	4.96	0.0111 mM
COc1ccc(C2Cn3cnc(C(=O)N4CCC(C(=O)NCC(C)C)CC4)c3CO2)cc1 (stereo not shown) [NCGC00449858-01]	0.00%	-13.26%	0.00%	14.32%	0.00%	–	–	–	–
O=C(NC1CCCCCCC1)C1CCN(C(=O)c2ncn3c2COC(c2ccccc2)C3)CC1 (stereo not shown) [NCGC00449770-01]	0.00%	-92.12%	0.00%	338.48%	0.00%	–	–	5.16	0.00699 mM
Cc1ccc(C2Cn3cnc(C(=O)N4CCC(C(=O)NCCCc5ccccc5)CC4)c3CO2)cc1 (stereo not shown) [NCGC00449897-01]	0.00%	-69.05%	0.00%	151.61%	-10.39%	5.01	0.00988 mM	–	–
O=C(NCC1CCCCC1)C1CCN(C(=O)c2ncn3c2COC(c2ccc(Cl)cc2)C3)CC1 (stereo not shown) [NCGC00449855-01]	0.00%	-13.13%	0.00%	16.00%	0.00%	–	–	–	–
Cc1ccc(C2Cn3cnc(C(=O)N4CCC(C(=O)NCCC5=CCCCC5)CC4)c3CO2)cc1 (stereo not shown) [NCGC00449883-01]	0.00%	-54.72%	0.00%	75.13%	0.00%	5.01	0.00988 mM	–	–
